From patent US6762182B1, “Converting cox inhibition compounds that are not COX-2 selective inhibitors to derivatives that are COX-2 selective inhibitors” (Vanderbilt University, priority 1999, dated 2004)
Read-outs that look alike come from different tables or passages of the source.

Assays:
[1] = target: T1, ovine COX-1 (Ovis aries, UniProt P05979); assay: TLC assay, inhibition of purified ovine COX-1
T1 sequence (P05979 25-600): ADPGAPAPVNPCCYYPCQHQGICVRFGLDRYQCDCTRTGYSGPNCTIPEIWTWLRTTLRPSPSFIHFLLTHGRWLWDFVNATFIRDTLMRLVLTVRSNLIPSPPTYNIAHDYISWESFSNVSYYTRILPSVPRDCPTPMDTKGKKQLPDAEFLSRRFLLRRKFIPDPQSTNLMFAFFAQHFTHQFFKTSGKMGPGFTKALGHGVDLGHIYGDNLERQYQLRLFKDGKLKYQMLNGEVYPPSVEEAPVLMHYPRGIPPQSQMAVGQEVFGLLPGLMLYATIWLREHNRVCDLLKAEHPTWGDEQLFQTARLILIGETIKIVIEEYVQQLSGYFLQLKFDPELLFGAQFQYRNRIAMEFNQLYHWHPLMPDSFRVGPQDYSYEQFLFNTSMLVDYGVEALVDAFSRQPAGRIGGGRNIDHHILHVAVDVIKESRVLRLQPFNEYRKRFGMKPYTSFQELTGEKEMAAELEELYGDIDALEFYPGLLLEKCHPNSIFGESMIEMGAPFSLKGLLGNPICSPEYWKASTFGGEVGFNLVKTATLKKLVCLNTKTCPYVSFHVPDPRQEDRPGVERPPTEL
Description: (§1) Ovine COX-1 was used because it is very easy to isolate and to purify the enzyme from sheep seminal vesicles, whereas human COX-1 is normally obtained by over expression in an insect cell system and is very difficult to handle and especially to purify. COX-1 from sheep is >90% similar to COX-1 from humans. […] COX-1 was purified from ram seminal vesicles obtained from Oxford Biomedical Research, Inc. (Oxford, Mich.). […] The enzymes obtained after purification were apo (i.e., they lacked the hemprosthetic group).
(§2) Reactions were terminated by solvent extraction in Et2O/CH3OH/1 M citrate, pH 4.0 (30:4:1). The phases were separated by centrifugation at 2000 g-force for 2 minutes and the organic phase was spotted on a TLC plate (obtained from J. T. Baker, Phillipsburg, N.J.). The plate was developed in EtOAc/CH2Cl2/glacial AcOH (75:25:1) at 4° C. Radiolabeled prostanoid products were quantitatively determined with a radioactivity scanner (obtained from Bioscan, Inc., Washington, D.C.).

[2] = target: COX-1 (Homo sapiens, UniProt P23219); conditions: background; cited from earlier work
Chain of COX-1 (P23219 24-599): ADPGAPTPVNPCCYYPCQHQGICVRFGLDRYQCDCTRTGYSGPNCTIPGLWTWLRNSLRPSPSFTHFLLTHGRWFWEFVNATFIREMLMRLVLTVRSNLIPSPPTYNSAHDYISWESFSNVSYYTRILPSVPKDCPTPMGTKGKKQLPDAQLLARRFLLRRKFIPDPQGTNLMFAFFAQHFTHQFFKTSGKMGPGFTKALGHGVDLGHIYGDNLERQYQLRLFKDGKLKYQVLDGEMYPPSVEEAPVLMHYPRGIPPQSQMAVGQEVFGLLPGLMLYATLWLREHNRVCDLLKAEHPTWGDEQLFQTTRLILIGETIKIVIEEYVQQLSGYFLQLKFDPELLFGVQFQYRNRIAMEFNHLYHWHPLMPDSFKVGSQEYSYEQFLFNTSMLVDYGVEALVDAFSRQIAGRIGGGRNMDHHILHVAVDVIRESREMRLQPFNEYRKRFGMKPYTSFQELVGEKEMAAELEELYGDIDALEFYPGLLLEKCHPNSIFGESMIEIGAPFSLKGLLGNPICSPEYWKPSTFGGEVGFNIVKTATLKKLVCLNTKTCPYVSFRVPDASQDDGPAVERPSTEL

[3] = target: T2, COX-2 (Homo sapiens, UniProt P35354); conditions: background; cited from earlier work
T2 sequence (P35354 18-604): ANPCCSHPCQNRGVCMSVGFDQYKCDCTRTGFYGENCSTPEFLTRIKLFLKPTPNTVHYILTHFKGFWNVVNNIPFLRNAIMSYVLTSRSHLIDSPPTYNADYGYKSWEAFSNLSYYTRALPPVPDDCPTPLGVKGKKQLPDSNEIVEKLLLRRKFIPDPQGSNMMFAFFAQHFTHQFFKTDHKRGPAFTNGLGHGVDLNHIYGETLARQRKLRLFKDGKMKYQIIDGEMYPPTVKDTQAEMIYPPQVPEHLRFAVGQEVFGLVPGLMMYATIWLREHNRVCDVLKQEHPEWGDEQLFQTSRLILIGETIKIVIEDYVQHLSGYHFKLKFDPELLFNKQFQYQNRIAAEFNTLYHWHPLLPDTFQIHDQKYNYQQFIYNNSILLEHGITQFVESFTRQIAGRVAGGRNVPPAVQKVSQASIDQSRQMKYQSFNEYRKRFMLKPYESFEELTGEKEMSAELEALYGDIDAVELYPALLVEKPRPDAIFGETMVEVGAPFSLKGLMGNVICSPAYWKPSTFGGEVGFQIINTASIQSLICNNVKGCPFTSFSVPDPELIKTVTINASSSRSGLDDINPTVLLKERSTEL

[4] = target: T2, COX-2; assay: TLC assay, inhibition of purified human COX-2; format: biochemical; conditions: for IC50: human COX-2 (66 nM)
Description: as §1, §2

[5] = system: carrageenan-induced rat foot pad edema; assay: Rat foot pad edema model (carrageenan); format: in vivo; conditions: for 3 hour edema: gavage 1 hour post carrageenan, 6 rats
Protocol: Rats were injected with carrageenan, which triggers a rapid edema (swelling) within 3 hours that can be quantitatively measured by volume displacement.
In these experiments, the carrageenan that was injected was in 0.1 mL of aqueous saline so that 0.1 mL volume increase was due to the injection alone. […] More specifically, male Sprague-Dawley rats (150 g) received a subplantar injection of carrageenan (0.1 mL of a 1% suspension of carrageenan in sterile aqueous saline) into the right hind footpad while mildly anesthetized with methoxyflurane. […] The ipsilateral footpad volume (mL) was measured with a water displacement plethysmometer at time=3 hours post-injection and compared to the time=0 pre-injection paw volume for edema calculations.

[6] = read-out: IC50 (μM) COX-1, Table 1 ester derivatives, ovine COX-1 (44 nM), 20 min at rt, then 14C-AA (50 μM) 37° C. 30 sec
[7] = Table 2 amide derivatives, 20 min, then 1-14C-AA (50 μM) 37° C. 30 sec
[8] = read-out: IC50 (μM) COX-1, Table 2 amide derivatives, ovine COX-1 (44 nM), 20 min, then 1-14C-AA (50 μM) 37° C. 30 sec

## COC(=O)Cc1c(C)n(C(=O)c2ccc(Cl)cc2)c2ccc(OC)cc12 [Compound 2, Indomethacin methyl ester]
[1]
  IC50: ~33 µM
[1]; [6]
  IC50: 33 µM

## CC1=C(CC(=O)O)c2cc(F)ccc2/C1=C\c1ccc(S(C)(=O)=O)cc1 [sulindac sulfone]
[2]
  COX-1 inhibition, in words: does not inhibit
[3]
  COX-2 inhibition, in words: does not inhibit

## COc1ccc2c(c1)c(CC(=O)Nc1ccc(Cl)nc1)c(C)n2C(=O)c1ccc(Cl)cc1 [Compound 48, Indomethacin-N-5-((2-chloro)pyridyl) amide]
[4]; Table 2 amide derivatives
  Selectivity, ratio of IC50 (COX-1):IC50 (COX-2): >1404
[4]; [7]
  IC50: 0.047 µM
[1]; [8]
  IC50: > 66 µM

## COc1ccc2c(c1)c(CC(=O)OC(C)C)c(C)n2C(=O)c1ccc(Cl)cc1 [Compound 5, Indomethacin isopropyl ester]
[1]
  IC50: 37 µM

## CCC#CCC(C)OC(=O)Cc1c(C)n(C(=O)c2ccc(Cl)cc2)c2ccc(OC)cc12 (stereo not drawn) [Compound 15, Indomethacin 2-(hept-4-ynyl) ester]
[1]
  IC50: > 66 µM

## Cc1nc(-c2ccccc2)c(-c2ccc(S(N)(=O)=O)cc2)o1 [2-methyl-4-phenyl-5-sulfonamidophenyl oxazolo, reference compound]
[4]; Table 1 ester derivatives, 20 min at rt, then 14C-AA (50 μM) 37° C. 30 sec
  IC50: 0.06 µM
[1]
  IC50: > 66 µM
[1]; [6]
  IC50: > 66 µM

## CCCCC#CCOC(=O)Cc1c(C)n(C(=O)c2ccc(Cl)cc2)c2ccc(OC)cc12 [Compound 14, Indomethacin hept-2-ynyl ester]
[1]
  IC50: > 66 µM

## COC(=O)[C@H](C)NC(=O)Cc1c(C)n(C(=O)c2ccc(Cl)cc2)c2ccc(OC)cc12 [Compound 52, Indomethacin-N-2-(2-L-methoxycarbonylethyl) amide]
[4]; [7]
  IC50: 0.4 µM

## CCCCCCCCOC(=O)Cc1c(C)n(C(=O)c2ccc(Cl)cc2)c2ccc(OC)cc12 [Compound 16, Indomethacin octyl ester]
[1]
  IC50: > 66 µM

## COc1ccc2c(c1)c(CC(=O)O)c(C)n2C(=O)c1ccc(Cl)cc1 [Indomethacin, reference compound]
[5]; rat, 2 mg/kg orally
  reduction in inflammation, in words: comparable reduction in inflammation

## COc1ccc2c(c1)c(CC(=O)Nc1ccc(NC(C)=O)cc1)c(C)n2C(=O)c1ccc(Cl)cc1 [Compound 41, Indomethacin-N-(4-acetamidophenyl) amide]
[5]; Concentration 0.2 mg/mL
  3 hour edema: 0.55 mL
[5]; Concentration 0.5 mg/mL
  3 hour edema: 0.47 mL
[5]; Concentration 1.0 mg/mL
  3 hour edema: 0.39 mL
[5]; Concentration 2.0 mg/mL
  3 hour edema: 0.38 mL
[5]; rat, 2 mg/kg orally 1 hour after carrageenan, corrected for 0.1 mL injection volume
  reduction in inflammation: 80-85%

## CCCCCCCOC(=O)Cc1c(C)n(C(=O)c2ccc(Cl)cc2)c2ccc(OC)cc12 [Compound 11, Indomethacin heptyl ester]
[1]
  IC50: > 66 µM

## COc1ccc2c(c1)c(CC(=O)Oc1ccc3ccccc3c1)c(C)n2C(=O)c1ccc(Cl)cc1 [Compound 25, Indomethacin β-naphthyl ester]
[1]
  IC50: > 66 µM

## COc1ccc2c(c1)c(CC(=O)Nc1nc(C)cs1)c(C)n2C(=O)c1ccc(Cl)cc1 [Compound 57, Indomethacin-N-2-(4-methylthiazolyl) amide]
[1]; [8]
  IC50: > 66 µM

## COc1ccc2c(c1)c(CC(=O)Nc1cc(OC)c(OC)c(OC)c1)c(C)n2C(=O)c1ccc(Cl)cc1 [Compound 46, Indomethacin-N-(3,4,5-trimethoxyphenyl) amide]
[4]; Table 2 amide derivatives
  Selectivity, ratio of IC50 (COX-1):IC50 (COX-2): >66
[4]; [7]
  IC50: > 1 µM
[1]; [8]
  IC50: > 66 µM
